One assay has as its target T1, XIAP BIR-3 (Homo sapiens, UniProt P98170).
T1 construct: 40 nM of the respective IAP BIR3
Description: Fluorescence polarization binding to XIAP BIR-3 with labeled peptide AbuRPF-K(5-Fam)-NH2. Particulars: 40 nM BIR3, 5 nM labeled peptide, reported as ranges. In a few lines: (§1)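 Competitive FP: compounds titrated against 5 nM AbuRPF-K(5-Fam)-NH2 tracer and 40 nM BIR3 protein, 15 min at RT in 0.1 M potassium phosphate pH 7.5 with bovine γ-globulin. Polarization read at 485/520 nm; KD reported in ranges A <0.1, B 0.1–1, C >1–10, D >10 μM.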
Background: Polarisation of emitted light reports the rotation of a fluorescent probe.

The next assay has as its target T2, cIAP-1 BIR-3 (Homo sapiens, UniProt Q13490).
T2 construct: 40 nM of the respective IAP BIR3
Description: Fluorescence polarization binding to cIAP-1 BIR-3 with labeled peptide AbuRPF-K(5-Fam)-NH2. Particulars: 40 nM BIR3, 5 nM labeled peptide, reported as ranges, read-out: KD (c-IAP-1 BIR3). In a few lines:
as §1

Assay [1] relates to ovarian cancer cell line, SK-OV-3. Description: SK-OV-3 cell growth inhibition (MTT, 72 hrs). It counts as cell-based. Particulars: Homo sapiens, concentration giving 50% cell survival, reported as ranges. In short, it runs like this: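 After overnight seeding in McCoy's medium with 10% FBS, SK-OV-3 cells were exposed to compound at 0.003-10 μM for 72 hrs at 37° C. MTT was then added for 3 h, with DMSO solubilization and OD read at 535 nm. CC50 is the concentration giving 50% survival relative to untreated control, reported as ranges.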

SMILES strings stand for the structures.

As usually defined, the Kd is the equilibrium constant for the complex coming apart. In general, CC50 refers to the concentration giving 50% cytotoxicity. A high value points to better tolerance by the cells.

T1 sequence (P98170 241-356 limits assumed): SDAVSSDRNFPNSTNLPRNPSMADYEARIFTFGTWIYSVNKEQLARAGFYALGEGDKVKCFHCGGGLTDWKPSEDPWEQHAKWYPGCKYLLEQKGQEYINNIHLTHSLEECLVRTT
T2 sequence (Q13490 253-363 limits assumed): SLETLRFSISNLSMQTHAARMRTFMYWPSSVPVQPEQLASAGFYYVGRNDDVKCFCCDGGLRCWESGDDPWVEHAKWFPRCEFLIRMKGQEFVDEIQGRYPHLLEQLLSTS

As to `CN[C@@H](C)C(=O)N[C@H](C(=O)N1CC[C@@H]2[C@H]1[C@@H](OCc1ccc(F)cc1)CN2S(=O)(=O)CC(C)C)C(C)(C)C` [Example 38, N-{1-[6-(4-Fluoro-benzyloxy)-4-(2-methyl-propane-1-sulfonyl)-hexahydro-pyrrolo[3,2-b]pyrrole-1-carbonyl]-2,2-dimethyl-propyl}-2-methylamino-propionamide], the dissociation constant Kd on XIAP BIR-3 and on cIAP-1 BIR-3 was < 100 nM in each case. In assay [1], the CC50 was < 100 nM.

Regarding `CN[C@@H](C)C(=O)N[C@H](C(=O)N1CC[C@@H]2[C@H]1[C@@H](OC(=O)N(C)c1ccccc1)CN2C(=O)NC(C)C)C(C)(C)C` [Example 50, Methyl-phenyl-carbamic acid 4-[3,3-dimethyl-2-(2-methylamino-propionylamino)-butyryl]-1-isopropylcarbamoyl-octahydro-pyrrolo[3,2-b]pyrrol-3-yl ester], the results for the equilibrium dissociation constant (Kd) at XIAP BIR-3 and on cIAP-1 BIR-3 were 100 to 1000 nM and < 100 nM, respectively. This compound displayed a CC50 in assay [1] of 100 to 1000 nM.

Consider `CN[C@@H](C)C(=O)N[C@H](C(=O)N1CC[C@@H]2[C@H]1[C@@H](OC(=O)N(c1ccccc1)c1ccccc1)CN2C(=O)NC(C)C)C(C)(C)C` [Example 48, Diphenyl-carbamic acid 4-[3,3-dimethyl-2-(2-methylamino-propionylamino)-butyryl]-1-isopropylcarbamoyl-octahydro-pyrrolo[3,2-b]pyrrol-3-yl ester], for which the dissociation constant (Kd) is 100 to 1000 nM at XIAP BIR-3 and < 100 nM on cIAP-1 BIR-3. In addition, the cytotoxic concentration (CC50) in assay [1] lay in the range of 100 to 1000 nM.

Regarding `CN[C@@H](C)C(=O)N[C@H](C(=O)N1CC[C@@H]2[C@H]1[C@@H](Oc1ccc(F)cc1)CN2S(C)(=O)=O)C(C)C` [Example 9, N-{1-[6-(4-Fluoro-phenoxy)-4-methanesulfonyl-hexahydro-pyrrolo[3,2-b]pyrrole-1-carbonyl]-2-methyl-propyl}-2-methylamino-propionamide], the Kd on XIAP BIR-3 and on cIAP-1 BIR-3 was < 100 nM in each case. Besides, in assay [1], the CC50 is < 100 nM.

Regarding `CN[C@@H](C)C(=O)N[C@H](C(=O)N1CC[C@@H]2[C@H]1[C@@H](Oc1ccc(F)c(F)c1)CN2S(C)(=O)=O)C(C)C` [Example 12, N-{1-[6-(3,4-Difluoro-phenoxy)-4-methanesulfonyl-hexahydro-pyrrolo[3,2-b]pyrrole-1-carbonyl]-2-methyl-propyl}-2-methylamino-propionamide], the dissociation constant (Kd) at XIAP BIR-3 and on cIAP-1 BIR-3 was < 100 nM in each case. Further, the CC50 in assay [1] is < 100 nM.

`CN[C@@H](C)C(=O)N[C@H](C(=O)N1CC[C@@H]2[C@H]1[C@@H](OC(=O)N1CCCC1)CN2C(=O)NC(C)C)C(C)(C)C` [Example 58, Pyrrolidine-1-carboxylic acid 4-[3,3-dimethyl-2-(2-methylamino-propionylamino)-butyryl]-1-isopropylcarbamoyl-octahydro-pyrrolo[3,2-b]pyrrol-3-yl ester]: the equilibrium dissociation constant (Kd) was in the range of 1000 to 10000 nM on XIAP BIR-3 and 100 to 1000 nM on cIAP-1 BIR-3. In assay [1], this compound showed a CC50 of 1000 to 10000 nM.

`CN[C@@H](C)C(=O)N[C@H](C(=O)N1CC[C@@H]2[C@H]1[C@@H](OCc1ccc(F)cc1)CN2c1ncccn1)C(C)(C)C` [Example 45, (S)—N—((S)-1-((3aR,6S,6aS)-6-(4-fluorobenzyloxy)-4-(pyrimidin-2-yl)hexahydropyrrolo[3,2-b]pyrrol-1(2H)-yl)-3,3-dimethyl-1-oxobutan-2-yl)-2-(methylamino)propanamide]: the dissociation constant (Kd) is 100 to 1000 nM on XIAP BIR-3 and < 100 nM at cIAP-1 BIR-3. Further, the half-maximal cytotoxic concentration (CC50) in assay [1] is < 100 nM.

Take `CNC(=O)N1C[C@H](Oc2ccc(F)cc2)[C@@H]2[C@H]1CCN2C(=O)[C@@H](NC(=O)[C@H](C)NC)C(C)(C)C` [Example 27, 4-[3,3-Dimethyl-2-(2-methylamino-propionylamino)-butyryl]-3-(4-fluoro-phenoxy)-hexahydro-pyrrolo[3,2-b]pyrrole-1-carboxylic acid methylamide]: the Kd on XIAP BIR-3 and at cIAP-1 BIR-3 was < 100 nM each time. In addition, the CC50 in assay [1] is < 100 nM.

Consider `CNC(=O)N1C[C@H](Oc2ccc(F)c(F)c2)[C@@H]2[C@H]1CCN2C(=O)[C@@H](NC(=O)[C@H](C)NC)C(C)(C)C` [Example 23, 3-(3,4-Difluoro-phenoxy)-4-[3,3-dimethyl-2-(2-methylamino-propionylamino)-butyryl]-hexahydro-pyrrolo[3,2-b]pyrrole-1-carboxylic acid methylamide], for which the Kd on XIAP BIR-3 and at cIAP-1 BIR-3 was < 100 nM in each case. In addition, the CC50 in assay [1] is < 100 nM.

In the case of `CN[C@@H](CF)C(=O)N[C@H](C(=O)N1CC[C@H]2NC[C@H](OCc3ccccc3)[C@H]21)C1CCCCC1` [Example 33, N-[2-(6-Benzyloxy-hexahydro-pyrrolo[3,2-b]pyrrol-1-yl)-1-cyclohexyl-2-oxo-ethyl]-3-fluoro-2-methylamino-propionamide], the Kd was 100 to 1000 nM at XIAP BIR-3 and < 100 nM at cIAP-1 BIR-3. The CC50 in assay [1] is > 10000 nM.

In the case of `CN[C@@H](C)C(=O)N[C@H](C(=O)N1CC[C@H]2NC[C@H](OCc3ccccc3)[C@H]21)C1CCCCC1` [Example 31, (S)—N—((S)-2-((3aR,6S,6aS)-6-(benzyloxy)hexahydropyrrolo[3,2-b]pyrrol-1(2H)-yl)-1-cyclohexyl-2-oxoethyl)-2-(methylamino)propanamide], the Kd was 100 to 1000 nM on XIAP BIR-3 and < 100 nM at cIAP-1 BIR-3. Moreover, in assay [1], the CC50 lay in the range of 100 to 1000 nM.

On to `CN[C@@H](C)C(=O)N[C@H](C(=O)N1CC[C@@H]2[C@H]1[C@@H](OCc1ccc(F)cc1)CN2C(=O)OC(C)(C)C)C(C)(C)C` [Example 34, 4-[3,3-Dimethyl-2-(2-methylamino-propionylamino)-butyryl]-3-(4-fluoro-benzyloxy)-hexahydro-pyrrolo[3,2-b]pyrrole-1-carboxylic acid tert-butyl ester], for which the Kd at XIAP BIR-3 and on cIAP-1 BIR-3 was < 100 nM throughout. Moreover, in assay [1], the half-maximal cytotoxic concentration (CC50) was < 100 nM.

Consider `CN[C@@H](C)C(=O)N[C@H](C(=O)N1CC[C@@H]2[C@H]1[C@@H](COc1ccc(F)c(F)c1)CN2S(C)(=O)=O)C(C)(C)C` [Example 63, N-{1-[6-(3,4-Difluoro-phenoxymethyl)-4-methanesulfonyl-hexahydro-pyrrolo[3,2-b]pyrrole-1-carbonyl}-2,2-dimethyl-propyl]-2-methylamino propionamide], for which the Kd on XIAP BIR-3 and at cIAP-1 BIR-3 was < 100 nM in each case. The half-maximal cytotoxic concentration (CC50) in assay [1] is < 100 nM.

Take `CN[C@@H](C)C(=O)N[C@H](C(=O)N1CC[C@@H]2[C@H]1[C@@H](Oc1ccccc1)CN2C(=O)OC(C)(C)C)C(C)C` [Example 1, 4-[3-Methyl-2-(2-methylamino-propionylamino)-butyryl]-3-phenoxy-hexahydro-pyrrolo[3,2-b]pyrrole-1-carboxylic acid tert-butyl ester]: the Kd is 100 to 1000 nM at XIAP BIR-3 and < 100 nM on cIAP-1 BIR-3. For the same compound, the half-maximal cytotoxic concentration (CC50) in assay [1] was < 100 nM.

For the compound `CN[C@@H](C)C(=O)N[C@H](C(=O)N1CC[C@@H]2[C@H]1[C@@H](Oc1ccc(F)c(F)c1)CN2S(=O)(=O)CC(C)C)C(C)(C)C` [Example 20, N-{1-[6-(3,4-Difluoro-phenoxy)-4-(2-methyl-propane-1-sulfonyl)-hexahydro-pyrrolo[3,2-b]pyrrole-1-carbonyl]-2,2-dimethyl-propyl}-2-methylamino-propionamide], the Kd at XIAP BIR-3 and on cIAP-1 BIR-3 was < 100 nM each time. In addition, the 50% cytotoxic concentration (CC50) in assay [1] is < 100 nM.

For the compound `CN[C@@H](C)C(=O)N[C@H](C(=O)N1CC[C@@H]2[C@H]1[C@@H](COc1ccc(F)c(F)c1)CN2C(=O)C1CC1)C(C)(C)C` [Example 69, N-{1-[4-Cyclopropanecarbonyl-6-(3,4-difluoro-phenoxymethyl)-hexahydro-pyrrolo[3,2-b]pyrrole-1-carbonyl]-2,2-dimethyl-propyl}-2-methylamino propionamide], the dissociation constant (Kd) was 100 to 1000 nM on XIAP BIR-3 and < 100 nM at cIAP-1 BIR-3. Further, the cytotoxic concentration (CC50) in assay [1] is < 100 nM.

On to `CN[C@@H](C)C(=O)N[C@H](C(=O)N1CC[C@@H]2[C@H]1[C@@H](Oc1ccc(F)cc1)CN2C(=O)NC(C)C)C1CCCCC1` [Example 28, 4-[2-Cyclohexyl-2-(2-methylamino-propionylamino)-acetyl]-3-(4-fluoro-phenoxy)-hexahydro-pyrrolo[3,2-b]pyrrole-1-carboxylic acid isopropylamide], for which the Kd at XIAP BIR-3 and on cIAP-1 BIR-3 was < 100 nM throughout. Besides, the CC50 in assay [1] is < 100 nM.

Take `CN[C@@H](C)C(=O)N[C@H](C(=O)N1CC[C@@H]2[C@H]1[C@@H](Oc1ccc(F)cc1)CN2C(=O)NC(C)C)C(C)(C)C` [Example 29, 4-[3,3-Dimethyl-2-(2-methylamino-propionylamino)-butyryl]-3-(4-fluoro-phenoxy)-hexahydro-pyrrolo[3,2-b]pyrrole-1-carboxylic acid isopropylamide]: the Kd at XIAP BIR-3 and at cIAP-1 BIR-3 was < 100 nM each time. For the same compound, the CC50 in assay [1] is < 100 nM.

Regarding `CN[C@@H](C)C(=O)N[C@H](C(=O)N1CC[C@@H]2[C@H]1[C@@H](OC(=O)Nc1ccc3ccccc3c1)CN2C(=O)NC(C)C)C(C)(C)C` [Example 51, Naphthalen-2-yl-carbamic acid 4-[3,3-dimethyl-2-(2-methylamino-propionylamino)-butyryl]-1-isopropylcarbamoyl-octahydro-pyrrolo[3,2-b]pyrrol-3-yl ester], the Kd at XIAP BIR-3 is 100 to 1000 nM; at cIAP-1 BIR-3, < 100 nM. The half-maximal cytotoxic concentration (CC50) in assay [1] lay within 1000 to 10000 nM.

The values are drawn from patent publication US8415486B2, “IAP inhibitors” (TetraLogic Pharmaceuticals Corp., priority 2009, dated 2013).
